In patent US12138320B2, “Composition and methods for tumor imaging and treatment” (The University of Chicago, priority 2020, dated 2024):

Target: T1, NCEH1 (Homo sapiens, UniProt Q6PIU2)
T1 construct: serine hydrolase activity in membrane proteome fractions of MDA-MB231 breast cancer cells treated with the indicated concentrations; endogenous in cells; host or cells: PC3 prostate cancer cells; MDA-MB231 breast cancer cells
T1 sequence (Q6PIU2 1-408): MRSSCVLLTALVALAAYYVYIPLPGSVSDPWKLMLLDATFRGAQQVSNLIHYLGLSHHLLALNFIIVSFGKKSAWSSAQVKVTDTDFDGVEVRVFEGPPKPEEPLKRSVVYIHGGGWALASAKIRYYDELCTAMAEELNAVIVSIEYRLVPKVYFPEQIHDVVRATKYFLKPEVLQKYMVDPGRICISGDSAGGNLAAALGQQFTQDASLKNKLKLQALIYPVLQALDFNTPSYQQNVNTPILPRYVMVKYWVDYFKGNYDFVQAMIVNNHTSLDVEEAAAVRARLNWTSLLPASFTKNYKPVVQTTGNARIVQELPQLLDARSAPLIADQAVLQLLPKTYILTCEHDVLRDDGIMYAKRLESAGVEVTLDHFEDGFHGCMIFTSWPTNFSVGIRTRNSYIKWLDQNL
Test: Gel-based competitive ABPP (FP-Rho) of cancer cells treated in situ (live cells)
Assay type: cell-based
Conditions: live cells
Description: Proteome Preparation: Human PC3 and MDA-MB231 cells were grown in Roswell Park Memorial Institute (RPMI) medium and Dulbecco's Modified Eagle Medium (DMEM), respectively, supplemented with 10% fetal bovine serum (FBS) and 2 mM L-glutamine, and cultured in a humidified 5% CO2 incubator at 37° C. Cells were washed twice with phosphate buffered saline (PBS, pH 7.5), collected by scraping, resuspended in 0.2 ml PBS, sonicated, and fractionated via centrifugation (100,000×g, 45 min) into a pellet (containing membrane proteins) and supernatant (containing soluble proteins). For murine proteomes, mouse tissues were Dounce-homogenized on ice in cold PBS, followed by a low-speed spin (1,400×g, 5 min) to remove debris. After sonication, the membrane and soluble proteomes were fractionated as described above. All sample pellets were washed and resuspended in PBS via sonication. Protein concentrations were determined using a Bradford protein assay kit (Bio-Rad, Hercules, California, United States of America)). Samples were stored at −80° C. until use.
Cellular JW199 Treatments: JW199 was dissolved in dimethyl sulfoxide (DMSO) vehicle, which was diluted into media or buffer before addition to cells or proteomes, respectively. For in vitro proteome experiments, the final DMSO concentration was 4%. For live cell (in situ) treatments, 2×10^6 cells were seeded in 6 cm dishes (100% confluency) 24 hours prior to JW199 treatment in serum-free media. At the end of the experiment, cells were washed and collected, as described above, for gel-based activity profiling.
Gel-based Activity Profiling: Cell lysates were treated with 1 μM fluorophosphonate-rhodamine (FP-rho) for 30 min at room temperature (50 μL total reaction volume). Reactions were quenched with one volume of standard 4× sodium dodecyl sulfate/polyacrylamide gel electrophoresis (SDS/PAGE) reducing sample buffer, resolved on 10% acrylamide SDS/PAGE gels, and visualized in-gel with a fluorescence scanner sold under the tradename CHEMIDOC™ MP (Bio-Rad, Hercules, California, United States of America). Densitometric quantification of band intensities were used to calculate the percent inhibition via JW199. 50% inhibitory concentration (IC50) values were determined from dose-response curves constructed in GraphPad Prism software from three independent replicates for each inhibitor concentration. For competitive ABPP with JW576, tumor lysates were treated with 1 μM JW576 for 30 min at 37° C. (50 μL total reaction volume). Competitive ABPP was then conducted as described above. NCEH1 activity was calculated by densitometric quantification (ImageJ software; National Institutes of Health (NIH), Bethesda, Maryland, United States of America) of JW576-labeled band intensity (BODIPY fluorescence) from three independent replicates.

CC(C)c1ccccc1OC(=O)NCCc1ccc(OCC[18F])cc1 [[^18F]JW199, fluorine-18-labeled 2-isopropylphenyl-(4-(2-fluoroethoxy)phenethyl)carbamate]
concentrations at which active NCEH1 is labeled in live cells: nM concentrations
